According to the supplement of paper PMC10307832:

Key:
Experiment in all cases: relative viability (nuclei count vs DMSO), 5 days (fraction); higher = more cells survive
[1] = system: SK-LU-1
Method in brief: (§1)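 A single step with final 0.05% Triton X-100, 1% formaldehyde and 1 ug/ml Hoechst fixed the cells and stained nuclei 5 days after treatment. Lung cancer cell lines in 1536-well plates had been treated by pin tool the day after seeding with one drug alone or a fixed anchor-drug dose plus five library-drug doses (not always all listed) in √10 steps, and nuclei were counted on 4× images. Relative viability is the ratio of nuclei in treated wells to nuclei in vehicle wells, taken as the median of duplicate plates.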

[2] = system: LXF-289
Method in brief: as §1

[3] = system: NCI-H522
Method in brief: as §1

[4] = system: HCC-15
Method in brief: as §1

[5] = system: NCI-H358
Method in brief: as §1

[6] = system: RERF-LC-KJ
Method in brief: as §1

[7] = system: A-427
Method in brief: as §1

[8] = system: PC-3 [JPC-3]
Method in brief: as §1

[9] = system: NCI-H1734
Method in brief: as §1

[10] = system: NCI-H1975
Method in brief: as §1

[11] = system: NCI-H647
Method in brief: as §1

[12] = system: LC-2-ad
Method in brief: as §1

[13] = system: SW 1573
Method in brief: as §1

[14] = system: NCI-H2228
Method in brief: as §1

[15] = system: NCI-H2342
Method in brief: as §1

[16] = system: NCI-H2347
Method in brief: as §1

[17] = system: NCI-H2126
Method in brief: as §1

[18] = system: HOP-62
Method in brief: as §1

[19] = system: NCI-H1755
Method in brief: as §1

[20] = system: NCI-H1915
Method in brief: as §1

[21] = system: NCI-H1792
Method in brief: as §1

Question: How did the relative viability ([1]; first compound 0.04 µM) turn out when `Cc1sc2c(c1C)C(c1ccc(Cl)cc1)=N[C@@H](CC(=O)OC(C)(C)C)c1nnc(C)n1-2` [JQ1] + CCNC(=O)c1noc(-c2cc(C(C)C)c(O)cc2O)c1-c1ccc(CN2CCOCC2)cc1 [Luminespib] (partner 0.01 µM) was run?
Answer: 0.199

Question: What about the relative viability ([1]; first compound 0.1265 µM) of the same molecule?
Answer: 0.177

Question: And the relative viability ([1]; first compound 0.4 µM)?
Answer: 0.171

Question: And the relative viability ([1]; first compound 1.265 µM)?
Answer: 0.152

Question: What about the relative viability ([1]; first compound 4 µM) of the same molecule?
Answer: 0.175

Question: What about the relative viability ([2]; first compound 0.04 µM) of the same molecule?
Answer: 0.675

Question: And the relative viability ([2]; first compound 0.1265 µM)?
Answer: 0.601

Question: And the relative viability ([2]; first compound 0.4 µM)?
Answer: 0.597

Question: What about the relative viability ([2]; first compound 1.265 µM) of the same molecule?
Answer: 0.495

Question: And the relative viability ([2]; first compound 4 µM)?
Answer: 0.541

Question: What about the relative viability ([3]; first compound 0.04 µM) of the same molecule?
Answer: 1.12

Question: What about the relative viability ([3]; first compound 0.1265 µM) of the same molecule?
Answer: 1.21

Question: And the relative viability ([3]; first compound 0.4 µM)?
Answer: 0.677

Question: What about the relative viability ([3]; first compound 1.265 µM) of the same molecule?
Answer: 0.601

Question: What about the relative viability ([3]; first compound 4 µM) of the same molecule?
Answer: 0.504

Question: And the relative viability ([4]; first compound 0.04 µM)?
Answer: 0.348

Question: And the relative viability ([4]; first compound 0.4 µM)?
Answer: 0.45

Question: And the relative viability ([4]; first compound 1.265 µM)?
Answer: 0.298

Question: What about the relative viability ([4]; first compound 4 µM) of the same molecule?
Answer: 0.216

Question: What about the relative viability ([5]; first compound 0.04 µM) of the same molecule?
Answer: 0.305

Question: And the relative viability ([5]; first compound 0.1265 µM)?
Answer: 0.398

Question: What about the relative viability ([5]; first compound 0.4 µM) of the same molecule?
Answer: 0.401

Question: What about the relative viability ([5]; first compound 1.265 µM) of the same molecule?
Answer: 0.385

Question: What about the relative viability ([5]; first compound 4 µM) of the same molecule?
Answer: 0.27

Question: What about the relative viability ([6]; first compound 0.04 µM) of the same molecule?
Answer: 1.25

Question: What about the relative viability ([6]; first compound 0.1265 µM) of the same molecule?
Answer: 1.07

Question: What about the relative viability ([6]; first compound 0.4 µM) of the same molecule?
Answer: 1.04

Question: And the relative viability ([6]; first compound 1.265 µM)?
Answer: 0.668

Question: And the relative viability ([6]; first compound 4 µM)?
Answer: 0.414

Question: What about the relative viability ([7]; first compound 0.04 µM) of the same molecule?
Answer: 0.795

Question: What about the relative viability ([7]; first compound 0.1265 µM) of the same molecule?
Answer: 0.97

Question: What about the relative viability ([7]; first compound 0.4 µM) of the same molecule?
Answer: 0.847

Question: What about the relative viability ([7]; first compound 1.265 µM) of the same molecule?
Answer: 0.563

Question: And the relative viability ([7]; first compound 4 µM)?
Answer: 0.431

Question: And the relative viability ([8]; first compound 0.04 µM)?
Answer: 0.82

Question: And the relative viability ([8]; first compound 0.1265 µM)?
Answer: 0.716

Question: And the relative viability ([8]; first compound 0.4 µM)?
Answer: 0.614

Question: And the relative viability ([8]; first compound 1.265 µM)?
Answer: 0.443

Question: And the relative viability ([8]; first compound 4 µM)?
Answer: 0.302

Question: And the relative viability ([9]; first compound 0.04 µM)?
Answer: 0.254

Question: And the relative viability ([9]; first compound 0.1265 µM)?
Answer: 0.165

Question: And the relative viability ([9]; first compound 0.4 µM)?
Answer: 0.158

Question: What about the relative viability ([9]; first compound 1.265 µM) of the same molecule?
Answer: 0.124

Question: And the relative viability ([9]; first compound 4 µM)?
Answer: 0.173

Question: What about the relative viability ([10]; first compound 0.04 µM) of the same molecule?
Answer: 0.212

Question: And the relative viability ([10]; first compound 0.1265 µM)?
Answer: 0.137

Question: And the relative viability ([10]; first compound 0.4 µM)?
Answer: 0.162

Question: And the relative viability ([10]; first compound 1.265 µM)?
Answer: 0.206

Question: What about the relative viability ([10]; first compound 4 µM) of the same molecule?
Answer: 0.172

Question: What about the relative viability ([11]; first compound 0.04 µM) of the same molecule?
Answer: 0.239

Question: And the relative viability ([11]; first compound 0.1265 µM)?
Answer: 0.113

Question: And the relative viability ([11]; first compound 0.4 µM)?
Answer: 0.134

Question: And the relative viability ([11]; first compound 1.265 µM)?
Answer: 0.113

Question: What about the relative viability ([11]; first compound 4 µM) of the same molecule?
Answer: 0.073

Question: What about the relative viability ([12]; first compound 0.04 µM) of the same molecule?
Answer: 0.892

Question: What about the relative viability ([12]; first compound 0.1265 µM) of the same molecule?
Answer: 0.58

Question: What about the relative viability ([12]; first compound 0.4 µM) of the same molecule?
Answer: 0.576

Question: And the relative viability ([12]; first compound 1.265 µM)?
Answer: 0.395

Question: And the relative viability ([12]; first compound 4 µM)?
Answer: 0.331

Question: What about the relative viability ([13]; first compound 0.04 µM) of the same molecule?
Answer: 0.249

Question: And the relative viability ([13]; first compound 0.1265 µM)?
Answer: 0.182

Question: What about the relative viability ([13]; first compound 0.4 µM) of the same molecule?
Answer: 0.195

Question: And the relative viability ([13]; first compound 1.265 µM)?
Answer: 0.0871

Question: And the relative viability ([13]; first compound 4 µM)?
Answer: 0.0908

Question: And the relative viability ([14]; first compound 0.04 µM)?
Answer: 0.148

Question: And the relative viability ([14]; first compound 0.1265 µM)?
Answer: 0.19

Question: What about the relative viability ([14]; first compound 0.4 µM) of the same molecule?
Answer: 0.0885

Question: And the relative viability ([14]; first compound 1.265 µM)?
Answer: 0.112

Question: What about the relative viability ([14]; first compound 4 µM) of the same molecule?
Answer: 0.103

Question: And the relative viability ([15]; first compound 0.04 µM)?
Answer: 0.633

Question: What about the relative viability ([15]; first compound 0.1265 µM) of the same molecule?
Answer: 0.569

Question: What about the relative viability ([15]; first compound 0.4 µM) of the same molecule?
Answer: 0.8

Question: And the relative viability ([15]; first compound 1.265 µM)?
Answer: 0.739

Question: And the relative viability ([15]; first compound 4 µM)?
Answer: 0.539

Question: What about the relative viability ([16]; first compound 0.04 µM) of the same molecule?
Answer: 0.45

Question: And the relative viability ([16]; first compound 0.1265 µM)?
Answer: 0.675

Question: And the relative viability ([16]; first compound 0.4 µM)?
Answer: 0.3

Question: What about the relative viability ([16]; first compound 1.265 µM) of the same molecule?
Answer: 0.316

Question: What about the relative viability ([16]; first compound 4 µM) of the same molecule?
Answer: 0.32

Question: And the relative viability ([17]; first compound 0.04 µM)?
Answer: 0.968

Question: What about the relative viability ([17]; first compound 0.1265 µM) of the same molecule?
Answer: 0.767

Question: What about the relative viability ([17]; first compound 0.4 µM) of the same molecule?
Answer: 0.977

Question: And the relative viability ([17]; first compound 1.265 µM)?
Answer: 0.864

Question: What about the relative viability ([17]; first compound 4 µM) of the same molecule?
Answer: 0.659

Question: What about the relative viability ([18]; first compound 0.04 µM) of the same molecule?
Answer: 0.867

Question: What about the relative viability ([18]; first compound 0.1265 µM) of the same molecule?
Answer: 0.824

Question: What about the relative viability ([18]; first compound 0.4 µM) of the same molecule?
Answer: 0.477

Question: What about the relative viability ([18]; first compound 1.265 µM) of the same molecule?
Answer: 0.309

Question: And the relative viability ([18]; first compound 4 µM)?
Answer: 0.128

Question: What about the relative viability ([19]; first compound 0.04 µM) of the same molecule?
Answer: 0.645

Question: And the relative viability ([19]; first compound 0.1265 µM)?
Answer: 0.283

Question: What about the relative viability ([19]; first compound 0.4 µM) of the same molecule?
Answer: 0.539

Question: And the relative viability ([19]; first compound 1.265 µM)?
Answer: 0.393

Question: What about the relative viability ([19]; first compound 4 µM) of the same molecule?
Answer: 0.442

Question: What about the relative viability ([20]; first compound 0.04 µM) of the same molecule?
Answer: 0.56

Question: And the relative viability ([20]; first compound 0.1265 µM)?
Answer: 0.668

Question: And the relative viability ([20]; first compound 0.4 µM)?
Answer: 0.364

Question: And the relative viability ([20]; first compound 1.265 µM)?
Answer: 0.32

Question: And the relative viability ([20]; first compound 4 µM)?
Answer: 0.186

Question: And the relative viability ([21]; first compound 0.04 µM)?
Answer: 0.522

Question: What about the relative viability ([21]; first compound 0.1265 µM) of the same molecule?
Answer: 0.437

Question: What about the relative viability ([21]; first compound 0.4 µM) of the same molecule?
Answer: 0.383

Question: And the relative viability ([21]; first compound 1.265 µM)?
Answer: 0.201

Question: And the relative viability ([21]; first compound 4 µM)?
Answer: 0.314
